Measured values as given in BigSolDB 2.1.

O=C1OC(=O)c2cc(Cl)ccc21
solubility (mole fraction)
Settings | 283.15 K | 288.15 K | 293.15 K | 298.15 K | 303.15 K | 308.15 K | 313.15 K | 318.15 K | 323.15 K | 328.15 K
in acetonitrile | 0.102 | 0.121 | 0.143 | 0.167 | 0.194 | 0.221 | 0.249 | 0.277 | 0.304 | 0.331
in cyclohexane | 0.000482 | 0.000684 | 0.000895 | 0.00109 | 0.00139 | 0.00161 | 0.00203 | 0.00246 | 0.00315 | 0.00399
in methanol | 0.0848 | 0.0944 | 0.118 | 0.136 | 0.167 | 0.196 | 0.228 | 0.266 | 0.309 | 0.356
in methyl acetate | 0.134 | 0.163 | 0.19 | 0.216 | 0.241 | 0.269 | 0.296 | 0.33 | 0.362 | 0.407
in tert-amyl alcohol | 0.00738 | 0.00942 | 0.0129 | 0.0166 | 0.0219 | 0.0274 | 0.0376 | 0.0489 | 0.065 | 0.0823
in tetrachloromethane | 0.00888 | 0.0103 | 0.0128 | 0.0142 | 0.0169 | 0.0191 | 0.0212 | 0.0233 | 0.0254 | 0.0274

O=C1OC(=O)c2c(Cl)cccc21
solubility (mole fraction)
Settings | 283.15 K | 288.15 K | 293.15 K | 298.15 K | 303.15 K | 308.15 K | 313.15 K | 318.15 K | 323.15 K | 328.15 K
in acetonitrile | 0.0676 | 0.0793 | 0.092 | 0.106 | 0.123 | 0.142 | 0.165 | 0.193 | 0.225 | 0.263
in cyclohexane | 0.00042 | 0.000507 | 0.000554 | 0.000764 | 0.000909 | 0.00108 | 0.00136 | 0.00176 | 0.00222 | 0.00277
in methanol | 0.0637 | 0.0698 | 0.0766 | 0.09 | 0.0968 | 0.104 | 0.116 | 0.126 | 0.144 | 0.161
in methyl acetate | 0.0882 | 0.0987 | 0.112 | 0.123 | 0.145 | 0.157 | 0.176 | 0.198 | 0.223 | 0.252
in tert-amyl alcohol | 0.00423 | 0.00548 | 0.00677 | 0.00875 | 0.0113 | 0.0125 | 0.0146 | 0.0184 | 0.0228 | 0.0288
in tetrachloromethane | 0.00307 | 0.004 | 0.00497 | 0.00605 | 0.00729 | 0.00873 | 0.0104 | 0.0125 | 0.0146 | 0.0177
